Laboratory results as given in ChEMBL document CHEMBL1201861, “Genomics of Drug Sensitity in Cancer screening data, Wellcome Trust Sanger Institute”.

Experiments:
Test in all cases: cells
DMS-114 = type: functional, cell-based, Homo sapiens; conditions: Homo sapiens, DMS-114
DSH1 = type: functional, cell-based, Homo sapiens; conditions: Homo sapiens, DSH1;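 also: growth inhibition of human DSH1 cells, measured with a cell viability readout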
Description: SANGER: Inhibition of human DSH1 cell growth in a cell viability assay.

ES4 = type: functional, cell-based, Homo sapiens; conditions: Homo sapiens, ES4;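 also: growth inhibition of human ES4 cells, read out by a cell viability assay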
Description: SANGER: Inhibition of human ES4 cell growth in a cell viability assay.

ES7 = type: functional, cell-based, Homo sapiens; conditions: Homo sapiens, ES7;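 also: growth inhibition of cultured human ES7 cells, read out as cell viability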
Description: SANGER: Inhibition of human ES7 cell growth in a cell viability assay.

HCT-116 = type: functional, cell-based, Homo sapiens; conditions: Homo sapiens, HCT-116
Description: SANGER: Inhibition of human HCT-116 cell growth in a cell viability assay.

HN = type: functional, cell-based, Homo sapiens; conditions: Homo sapiens, HN
Description: SANGER: Inhibition of human HN cell growth in a cell viability assay.

HT-1080 = type: functional, cell-based, Homo sapiens; conditions: Homo sapiens, HT-1080
Description: SANGER: Inhibition of human HT-1080 cell growth in a cell viability assay.

HuCCT-1 = type: functional, cell-based, Homo sapiens, HuCCT1; conditions: Homo sapiens, HuCCT-1;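 also: growth inhibition of HuCCT-1 cells, read out by a cell viability assay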
Description: SANGER: Inhibition of human HuCCT1 cell growth in a cell viability assay.

JEG-3 = type: functional, cell-based, Homo sapiens; conditions: Homo sapiens, JEG-3;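 also: growth inhibition of human JEG-3 cells, read out with a cell viability assay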
Description: SANGER: Inhibition of human JEG-3 cell growth in a cell viability assay.

KALS-1 = type: functional, cell-based, Homo sapiens; conditions: Homo sapiens, KALS-1;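 also: growth inhibition of KALS-1 cells, determined with a cell viability assay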
Description: SANGER: Inhibition of human KALS-1 cell growth in a cell viability assay.

KM12 = type: functional, cell-based, Homo sapiens; conditions: Homo sapiens, KM12;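 also: KM12 cell growth inhibition, read out with a cell viability assay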
Description: SANGER: Inhibition of human KM12 cell growth in a cell viability assay.

KU812 cell line = type: functional, cell-based; conditions: Homo sapiens;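 also: growth inhibition of KU812 cells, read out with a cell viability assay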
Description: SANGER: Inhibition of human KU812 cell growth in a cell viability assay.

KYSE-150 cell line = type: functional, cell-based, Homo sapiens; conditions: Homo sapiens, KYSE-150;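 also: growth inhibition of human KYSE-150 cells, read out with a cell viability assay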
Description: SANGER: Inhibition of human KYSE-150 cell growth in a cell viability assay.

L-428 = type: functional, cell-based; conditions: Homo sapiens
Description: SANGER: Inhibition of human L-428 cell growth in a cell viability assay.

LB2241-RCC = type: functional, cell-based, Homo sapiens; conditions: Homo sapiens, LB2241-RCC;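 also: cell viability assay measuring how strongly the cultured human renal carcinoma line is prevented from growing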
Description: SANGER: Inhibition of human LB2241-RCC cell growth in a cell viability assay.

LB996-RCC = type: functional, cell-based; conditions: Homo sapiens
Description: SANGER: Inhibition of human LB996-RCC cell growth in a cell viability assay.

LOX IMVI = type: functional, cell-based; conditions: Homo sapiens
Description: SANGER: Inhibition of human LOXIMVI cell growth in a cell viability assay.

Lu-65 = type: functional, cell-based; conditions: Homo sapiens;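 also: growth inhibition of Lu-65 cancer cells, read out by a cell viability assay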
Description: SANGER: Inhibition of human LU-65 cell growth in a cell viability assay.

M14 = type: functional, cell-based, Homo sapiens; conditions: Homo sapiens, M14;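 also: growth inhibition of M14 cells, read out with a cell viability assay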
Description: SANGER: Inhibition of human M14 cell growth in a cell viability assay.

MDA-MB-157 = type: functional, cell-based, Homo sapiens; conditions: Homo sapiens, MDA-MB-157
Description: SANGER: Inhibition of human MDA-MB-157 cell growth in a cell viability assay.

MFE-280 = type: functional, cell-based, Homo sapiens; conditions: Homo sapiens, MFE-280;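 also: growth inhibition of MFE-280 cells, determined with a cell viability readout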
Description: SANGER: Inhibition of human MFE-280 cell growth in a cell viability assay.

MHH-PREB-1 = type: functional, cell-based; conditions: Homo sapiens;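 also: cell viability assay measuring inhibition of proliferation of human MHH-PREB-1 cells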
Description: SANGER: Inhibition of human MHH-PREB-1 cell growth in a cell viability assay.

MZ2-MEL = type: functional, cell-based, Homo sapiens; conditions: Homo sapiens, MZ2-MEL;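 also: growth inhibition of MZ2-MEL cells read out with a cell viability assay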
Description: SANGER: Inhibition of human MZ2-MEL cell growth in a cell viability assay.

NCI-H1623 = type: functional, cell-based, Homo sapiens; conditions: Homo sapiens, NCI-H1623;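 also: cell viability assay used as the read-out for growth inhibition of NCI-H1623 cells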
Description: SANGER: Inhibition of human NCI-H1623 cell growth in a cell viability assay.

NCI-H1993 = type: functional, cell-based, Homo sapiens; conditions: Homo sapiens, NCI-H1993;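 also: growth inhibition of the cancer cell line, assessed with a cell viability assay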
Description: SANGER: Inhibition of human NCI-H1993 cell growth in a cell viability assay.

NCI-H226 = type: functional, cell-based, Homo sapiens; conditions: Homo sapiens, NCI-H226;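 also: cell viability read-out used to gauge growth inhibition of the cells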
Description: SANGER: Inhibition of human NCI-H226 cell growth in a cell viability assay.

NCI-H661 = type: functional, cell-based, Homo sapiens; conditions: Homo sapiens, NCI-H661;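 also: cell viability assay read-out, IC50 being the concentration that inhibits growth of the cells by half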
Description: SANGER: Inhibition of human NCI-H661 cell growth in a cell viability assay.

NCI-H82 = type: functional, cell-based; conditions: Homo sapiens;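 also: growth inhibition of NCI-H82 cells, measured with a cell viability readout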
Description: SANGER: Inhibition of human NCI-H82 cell growth in a cell viability assay.

SNU1 = type: functional, cell-based; conditions: Homo sapiens;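 also: growth inhibition of human NCI-SNU-1 cells, measured with a cell viability assay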
Description: SANGER: Inhibition of human NCI-SNU-1 cell growth in a cell viability assay.

NUGC-3 = type: functional, cell-based, Homo sapiens; conditions: Homo sapiens, NUGC-3;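 also: growth inhibition of human NUGC-3 cells, read out with a cell viability assay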
Description: SANGER: Inhibition of human NUGC-3 cell growth in a cell viability assay.

OVCAR-3 = type: functional, cell-based, Homo sapiens; conditions: Homo sapiens, OVCAR-3;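 also: growth inhibition of human OVCAR-3 cells, determined by a cell viability assay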
Description: SANGER: Inhibition of human OVCAR-3 cell growth in a cell viability assay.

RCC10RGB = type: functional, cell-based, Homo sapiens; conditions: Homo sapiens, RCC10RGB;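 also: growth inhibition of human RCC10RGB cells, read out by a cell viability assay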
Description: SANGER: Inhibition of human RCC10RGB cell growth in a cell viability assay.

SBC-5 = type: functional, cell-based, Homo sapiens; conditions: Homo sapiens, SBC-5;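 also: cell viability assay read-out, IC50 is the concentration that inhibits growth of the cells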
Description: SANGER: Inhibition of human SBC-5 cell growth in a cell viability assay.

SCH = type: functional, cell-based, Homo sapiens; conditions: Homo sapiens, SCH;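 also: growth inhibition of human SCH cells, read out in a cell viability assay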
Description: SANGER: Inhibition of human SCH cell growth in a cell viability assay.

SJSA-1 = type: functional, cell-based, Homo sapiens; conditions: Homo sapiens, SJSA-1;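 also: growth inhibition of human SJSA-1 cells, read out through a cell viability measurement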
Description: SANGER: Inhibition of human SJSA-1 cell growth in a cell viability assay.

SK-MEL-2 = type: functional, cell-based, Homo sapiens; conditions: Homo sapiens, SK-MEL-2;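 also: growth inhibition of human SK-MEL-2 cells measured with a cell viability assay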
Description: SANGER: Inhibition of human SK-MEL-2 cell growth in a cell viability assay.

SNB-75 = type: functional, cell-based, Homo sapiens; conditions: Homo sapiens, SNB-75;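 also: cell viability assay measuring growth inhibition of human SNB-75 cells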
Description: SANGER: Inhibition of human SNB75 cell growth in a cell viability assay.

SW13 = type: functional, cell-based, Homo sapiens; conditions: Homo sapiens, SW13;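 also: IC50 is inhibition of SW13 cell growth, read out with a cell viability assay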
Description: SANGER: Inhibition of human SW13 cell growth in a cell viability assay.

SW1573 = type: functional, cell-based, Homo sapiens; conditions: Homo sapiens, SW1573;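 also: growth inhibition of SW1573 cells, read out with a cell viability assay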
Description: SANGER: Inhibition of human SW1573 cell growth in a cell viability assay.

SW1990 = type: functional, cell-based, Homo sapiens; conditions: Homo sapiens, SW1990;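 also: cell growth inhibition determined with a viability assay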
Description: SANGER: Inhibition of human SW1990 cell growth in a cell viability assay.

TCC-SUP = type: functional, cell-based, Homo sapiens; conditions: Homo sapiens, TCC-SUP;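 also: growth inhibition of TCC-SUP cells, read out with a cell viability assay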
Description: SANGER: Inhibition of human TCCSUP cell growth in a cell viability assay.

BFTC-909 = type: functional, cell-based, Homo sapiens; conditions: Homo sapiens, BFTC-909
Description: SANGER: Inhibition of human BFTC-909 cell growth in a cell viability assay.

BV-173 = type: functional, cell-based; conditions: Homo sapiens
Description: SANGER: Inhibition of human BV-173 cell growth in a cell viability assay.

C32 = type: functional, cell-based, Homo sapiens; conditions: Homo sapiens, C32;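 also: cell viability assay, with IC50 reflecting inhibition of C32 cell growth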
Description: SANGER: Inhibition of human C32 cell growth in a cell viability assay.

CAL-54 = type: functional, cell-based, Homo sapiens; conditions: Homo sapiens, CAL-54;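 also: growth inhibition of CAL-54 cells, read out by a viability measurement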
Description: SANGER: Inhibition of human CAL-54 cell growth in a cell viability assay.

TGW = type: functional, cell-based; conditions: Homo sapiens;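 also: growth inhibition of human TGW cells, read out with a cell viability assay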
Description: SANGER: Inhibition of human TGW cell growth in a cell viability assay.

VM-CUB-1 = type: functional, cell-based; conditions: Homo sapiens;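 also: cell viability assay measuring growth inhibition of the human VM-CUB-1 cell line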
Description: SANGER: Inhibition of human VM-CUB-1 cell growth in a cell viability assay.

VMRC-RCZ = type: functional, cell-based; conditions: Homo sapiens;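 also: growth inhibition measured with a cell viability assay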
Description: SANGER: Inhibition of human VMRC-RCZ cell growth in a cell viability assay.

no-10 = type: functional, cell-based, Homo sapiens; conditions: Homo sapiens;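 also: growth inhibition of no-10 cells, read out with a cell viability assay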
Description: SANGER: Inhibition of human no-10 cell growth in a cell viability assay.

no-11 = type: functional, cell-based, Homo sapiens; conditions: Homo sapiens;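 also: growth inhibition of human NO-11 cells, read out with a cell viability assay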
Description: SANGER: Inhibition of human no-11 cell growth in a cell viability assay.

CHL-1 = type: functional, cell-based, Homo sapiens; conditions: Homo sapiens, CHL-1;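 also: cell growth inhibition, read out with a cell viability assay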
Description: SANGER: Inhibition of human CHL-1 cell growth in a cell viability assay.

CHP-212 = type: functional, cell-based, Homo sapiens; conditions: Homo sapiens, CHP-212
Description: SANGER: Inhibition of human CHP-212 cell growth in a cell viability assay.

With `CCOc1nc(NC(=O)Cc2cc(OC)ccc2OC)cc(N)c1C#N` the IC50 (DMS-114) was greater than 10 µM, the IC50 (DSH1) was greater than 10 µM and the IC50 (ES4) was greater than 10 µM. The IC50 (ES7) was greater than 10 µM, the IC50 (HCT-116) was greater than 10 µM and the IC50 (HN) was greater than 10 µM. It also gave an IC50 (HT-1080) greater than 10 µM, an IC50 (HuCCT-1) greater than 10 µM and an IC50 (JEG-3) greater than 10 µM. The IC50 (KALS-1) was greater than 10 µM, the IC50 (KM12) was greater than 10 µM and the IC50 (KU812 cell line) was greater than 10 µM. It also gave an IC50 (KYSE-150 cell line) greater than 10 µM, an IC50 (L-428) greater than 10 µM and an IC50 (LB2241-RCC) of 6.58 µM. The IC50 (LB996-RCC) was greater than 10 µM, the IC50 (LOX IMVI) was greater than 10 µM and the IC50 (Lu-65) was greater than 10 µM. For the same compound, the IC50 (M14) was greater than 10 µM, the IC50 (MDA-MB-157) was greater than 10 µM and the IC50 (MFE-280) was greater than 10 µM. For the same compound, the IC50 (MHH-PREB-1) was greater than 10 µM, the IC50 (MZ2-MEL) was greater than 10 µM and the IC50 (NCI-H1623) was greater than 10 µM. The IC50 (NCI-H1993) was greater than 10 µM, the IC50 (NCI-H226) was greater than 10 µM and the IC50 (NCI-H661) was greater than 10 µM. The IC50 (NCI-H82) was greater than 10 µM, the IC50 (SNU1) was greater than 10 µM and the IC50 (NUGC-3) was greater than 10 µM. It also gave an IC50 (OVCAR-3) greater than 10 µM, an IC50 (RCC10RGB) greater than 10 µM and an IC50 (SBC-5) greater than 10 µM. The IC50 (SCH) was greater than 10 µM, the IC50 (SJSA-1) was greater than 10 µM and the IC50 (SK-MEL-2) was greater than 10 µM. It also gave an IC50 (SNB-75) greater than 10 µM, an IC50 (SW13) greater than 10 µM and an IC50 (SW1573) greater than 10 µM. It also gave an IC50 (SW1990) greater than 10 µM, an IC50 (TCC-SUP) greater than 10 µM and an IC50 (BFTC-909) greater than 10 µM. The IC50 (BV-173) was greater than 10 µM, the IC50 (C32) was greater than 10 µM and the IC50 (CAL-54) was greater than 10 µM. For the same compound, the IC50 (TGW) was greater than 10 µM, the IC50 (VM-CUB-1) was greater than 10 µM and the IC50 (VMRC-RCZ) was greater than 10 µM. It also gave an IC50 (no-10) greater than 10 µM, an IC50 (no-11) greater than 10 µM and an IC50 (CHL-1) greater than 10 µM. The IC50 (CHP-212) was greater than 10 µM.

`CC(=O)O[C@@H]1[C@@H](OC(C)=O)[C@@H](O)[C@H](Oc2c(-c3ccc(O)cc3)oc3cc(O)cc(O)c3c2=O)O[C@H]1C` showed an IC50 (DMS-114) greater than 10 µM, an IC50 (DSH1) greater than 10 µM and an IC50 (ES4) greater than 10 µM. It also gave an IC50 (ES7) greater than 10 µM, an IC50 (HCT-116) greater than 10 µM and an IC50 (HN) greater than 10 µM. For the same compound, the IC50 (HT-1080) was greater than 10 µM, the IC50 (HuCCT-1) was greater than 10 µM and the IC50 (JEG-3) was greater than 10 µM. For the same compound, the IC50 (KALS-1) was greater than 10 µM, the IC50 (KM12) was greater than 10 µM and the IC50 (KU812 cell line) was greater than 10 µM. For the same compound, the IC50 (KYSE-150 cell line) was greater than 10 µM, the IC50 (L-428) was greater than 10 µM and the IC50 (LB2241-RCC) was greater than 10 µM. For the same compound, the IC50 (LB996-RCC) was greater than 10 µM, the IC50 (LOX IMVI) was greater than 10 µM and the IC50 (Lu-65) was greater than 10 µM. It also gave an IC50 (M14) greater than 10 µM, an IC50 (MDA-MB-157) greater than 10 µM and an IC50 (MFE-280) greater than 10 µM. It also gave an IC50 (MHH-PREB-1) greater than 10 µM, an IC50 (MZ2-MEL) greater than 10 µM and an IC50 (NCI-H1623) greater than 10 µM. For the same compound, the IC50 (NCI-H1993) was greater than 10 µM, the IC50 (NCI-H226) was greater than 10 µM and the IC50 (NCI-H661) was greater than 10 µM. The IC50 (NCI-H82) was 5.06 µM, the IC50 (SNU1) was greater than 10 µM and the IC50 (NUGC-3) was greater than 10 µM. The IC50 (OVCAR-3) was greater than 10 µM, the IC50 (RCC10RGB) was greater than 10 µM and the IC50 (SBC-5) was greater than 10 µM. It also gave an IC50 (SCH) greater than 10 µM, an IC50 (SJSA-1) greater than 10 µM and an IC50 (SK-MEL-2) greater than 10 µM. For the same compound, the IC50 (SNB-75) was greater than 10 µM, the IC50 (SW13) was greater than 10 µM and the IC50 (SW1573) was greater than 10 µM. For the same compound, the IC50 (SW1990) was greater than 10 µM, the IC50 (TCC-SUP) was greater than 10 µM and the IC50 (BFTC-909) was greater than 10 µM. The IC50 (BV-173) was 3.01 µM, the IC50 (C32) was greater than 10 µM and the IC50 (CAL-54) was greater than 10 µM. The IC50 (TGW) was greater than 10 µM, the IC50 (VM-CUB-1) was greater than 10 µM and the IC50 (VMRC-RCZ) was greater than 10 µM. It also gave an IC50 (no-10) greater than 10 µM, an IC50 (no-11) greater than 10 µM and an IC50 (CHL-1) greater than 10 µM. The IC50 (CHP-212) was greater than 10 µM.
